# Assay results reported in PubChem BioAssay AID270 (DTP/NCI, 2004).
# “And” between values parts separate entries of the source, which are not always exact repeats. Equal entries are not always repeated. Inconclusive results are not listed.
# Test system: BDF1 mice, s.c. Lewis lung carcinoma, T/C %
# Assay: NCI In Vivo Anticancer Drug Screen. Data for tumor model Lewis Lung Carcinoma (subcutaneous) in B6D2F1 (BDF1) mice
# Summary of the method: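 Transplanted tumors grown in mice; compound vs vehicle dosing; endpoint survival or tumor size; ratio T/C.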
# [1] = endpoint: median survival time, dose: 6.25 mg/kg/injection, schedule: Q01DX009 (ip), vehicle: saline, higher = longer survival
# [2] = endpoint: median survival time, dose: 12.5 mg/kg/injection, schedule: Q01DX009 (ip), vehicle: saline, higher = longer survival
# [3] = endpoint: median survival time, dose: 25.0 mg/kg/injection, schedule: Q01DX009 (ip), vehicle: saline, higher = longer survival
# [4] = endpoint: median survival time, dose: 12.5 mg/kg/injection, schedule: Q01DX009 (ip), vehicle: Klucel (hydroxypropylcellulose) (HPC), higher = longer survival
# [5] = endpoint: median survival time, dose: 25.0 mg/kg/injection, schedule: Q01DX009 (ip), vehicle: Klucel (hydroxypropylcellulose) (HPC), higher = longer survival
# [6] = endpoint: median survival time, dose: 50.0 mg/kg/injection, schedule: Q01DX009 (ip), vehicle: Klucel (hydroxypropylcellulose) (HPC), higher = longer survival
# [7] = endpoint: median survival time, dose: 50.0 mg/kg/injection, schedule: Q01DX009 (ip), vehicle: saline, higher = longer survival
# [8] = endpoint: median survival time, dose: 100.0 mg/kg/injection, schedule: Q01DX009 (ip), vehicle: saline, higher = longer survival
# [9] = endpoint: mean tumor weight, dose: 12.5 mg/kg/injection, schedule: Q01DX011 (ip), vehicle: saline, higher = larger tumour
# [10] = endpoint: mean tumor weight, dose: 25.0 mg/kg/injection, schedule: Q01DX011 (ip), vehicle: saline, higher = larger tumour
# [11] = endpoint: median survival time, dose: 5.0 mg/kg/injection, schedule: Q01DX009 (ip), vehicle: saline with Tween-80, higher = longer survival
# [12] = endpoint: median survival time, dose: 10.0 mg/kg/injection, schedule: Q01DX009 (ip), vehicle: saline with Tween-80, higher = longer survival
# [13] = endpoint: median survival time, dose: 20.0 mg/kg/injection, schedule: Q01DX009 (ip), vehicle: saline with Tween-80, higher = longer survival
# [14] = endpoint: median survival time, dose: 40.0 mg/kg/injection, schedule: Q01DX009 (ip), vehicle: saline with Tween-80, higher = longer survival
compound,measurement,setting,value
N=C(N)NC(=N)Nc1ccc(NC(=O)Nc2ccc(Nc3c4ccccc4nc4cc([N+](=O)[O-])ccc34)cc2)cc1,T/C,"endpoint: median survival time, dose: 1.56 mg/kg/injection, schedule: Q01DX009 (ip), vehicle: water, higher = longer survival",111 % of control
same,T/C,"endpoint: median survival time, dose: 6.25 mg/kg/injection, schedule: Q01DX009 (ip), vehicle: water, higher = longer survival",108 % of control
same,T/C,"endpoint: median survival time, dose: 12.5 mg/kg/injection, schedule: Q01DX009 (ip), vehicle: water, higher = longer survival",112 % of control
same,T/C,"endpoint: median survival time, dose: 25.0 mg/kg/injection, schedule: Q01DX009 (ip), vehicle: water, higher = longer survival",103 % of control
same,T/C,"endpoint: median survival time, dose: 50.0 mg/kg/injection, schedule: Q01DX009 (ip), vehicle: water, higher = longer survival",112 % of control
COc1cc(OC)c(OC)cc1/C=C/c1cc[n+](C)c2ccccc12,T/C,[1],97 % of control
same,T/C,[2],97 % of control
same,T/C,[3],111 % of control
C1CC[N-]CC1.C1CC[N-]CC1.C1CC[N-]CC1.C1CC[N-]CC1.[Cl][Co][Cl],T/C,"endpoint: mean tumor weight, dose: 15.0 mg/kg/injection, schedule: Q01DX011 (ip), vehicle: other, higher = larger tumour",63 % of control
same,T/C,"endpoint: mean tumor weight, dose: 30.0 mg/kg/injection, schedule: Q01DX011 (ip), vehicle: other, higher = larger tumour",68 % of control
same,T/C,"endpoint: mean tumor weight, dose: 60.0 mg/kg/injection, schedule: Q01DX011 (ip), vehicle: other, higher = larger tumour",56 % of control
same,T/C,"endpoint: median survival time, dose: 2.5 mg/kg/injection, schedule: Q01DX009 (ip), vehicle: saline, higher = longer survival",94 % of control
same,T/C,"endpoint: median survival time, dose: 10.0 mg/kg/injection, schedule: Q01DX009 (ip), vehicle: saline, higher = longer survival",105 % of control
same,T/C,"endpoint: median survival time, dose: 20.0 mg/kg/injection, schedule: Q01DX009 (ip), vehicle: saline, higher = longer survival",95 % of control
same,T/C,"endpoint: median survival time, dose: 40.0 mg/kg/injection, schedule: Q01DX009 (ip), vehicle: saline, higher = longer survival",93 % of control
CN(C)[C@@H]1C(=O)C(C(N)=O)=C(O)[C@]2(O)C(=O)C3C(=O)c4c(O)ccc(Cl)c4[C@](C)(O)[C@H]3C[C@@H]12 (stereo partly drawn),T/C,[4],117 % of control
same,T/C,[5],120 % of control
same,T/C,[6],102 % of control and 123 % of control
O=c1ccn(C2OC(CO)C(O)C2O)c(=O)[nH]1 (stereo not drawn),T/C,"endpoint: median survival time, dose: 0.2 mg/kg/injection, schedule: Q01DX011 (adlb), vehicle: water, higher = longer survival",97 % of control and 119 % of control
same,T/C,"endpoint: median survival time, dose: 0.6 mg/kg/injection, schedule: Q01DX011 (adlb), vehicle: water, higher = longer survival",103 % of control
same,T/C,"endpoint: median survival time, dose: 1.0 mg/kg/injection, schedule: Q01DX011 (adlb), vehicle: water, higher = longer survival",86 % of control
same,T/C,"endpoint: median survival time, dose: 1.5 mg/kg/injection, schedule: Q01DX011 (adlb), vehicle: water, higher = longer survival",106 % of control
same,T/C,"endpoint: median survival time, dose: 2.0 mg/kg/injection, schedule: Q01DX011 (adlb), vehicle: water, higher = longer survival",76 % of control and 100 % of control
O=C(NO)c1ccccc1O,T/C,[1],109 % of control
same,T/C,[2],106 % of control
same,T/C,[3],108 % of control
same,T/C,[7],103 % of control
same,T/C,"endpoint: median survival time, dose: 400.0 mg/kg/injection, schedule: Q01DX009 (ip), vehicle: saline with Tween-80, higher = longer survival",113 % of control
[CH3][Sn]([CH3])([CH3])[O]C(=O)CCl,T/C,"endpoint: median survival time, dose: 0.19 mg/kg/injection, schedule: Q01DX009 (ip), vehicle: saline, higher = longer survival",100 % of control
same,T/C,"endpoint: median survival time, dose: 0.38 mg/kg/injection, schedule: Q01DX009 (ip), vehicle: saline, higher = longer survival",104 % of control
same,T/C,"endpoint: median survival time, dose: 0.75 mg/kg/injection, schedule: Q01DX009 (ip), vehicle: saline, higher = longer survival",88 % of control and 97 % of control
Cc1nnc(NS(=O)(=O)c2ccc(N=Nc3nc4[nH]c(N)nc(=S)c4[nH]3)cc2)s1,T/C,[3],109 % of control
same,T/C,[7],106 % of control
same,T/C,[8],98 % of control
same,T/C,"endpoint: median survival time, dose: 200.0 mg/kg/injection, schedule: Q01DX009 (ip), vehicle: saline, higher = longer survival",98 % of control
CO[C@H]1Nc2c(ccc(C)c2O)C(=O)N2C=C(/C=C/C(N)=O)C[C@@H]12,T/C,"endpoint: median survival time, dose: 0.03 mg/kg/injection, schedule: Q04DX003 (ip), vehicle: saline with Tween-80, higher = longer survival",92 % of control
same,T/C,"endpoint: median survival time, dose: 0.04 mg/kg/injection, schedule: Q04DX003 (ip), vehicle: saline with Tween-80, higher = longer survival",103 % of control
same,T/C,"endpoint: median survival time, dose: 0.06 mg/kg/injection, schedule: Q04DX003 (ip), vehicle: saline with Tween-80, higher = longer survival",89 % of control and 98 % of control
same,T/C,"endpoint: median survival time, dose: 0.13 mg/kg/injection, schedule: Q04DX003 (ip), vehicle: saline with Tween-80, higher = longer survival",98 % of control
same,T/C,"endpoint: median survival time, dose: 0.25 mg/kg/injection, schedule: Q04DX003 (ip), vehicle: saline with Tween-80, higher = longer survival",99 % of control
same,T/C,"endpoint: median survival time, dose: 50.0 micrograms/kg/injection, schedule: Q04DX003 (ip), vehicle: saline + alcohol, higher = longer survival",107 % of control
same,T/C,"endpoint: median survival time, dose: 100.0 micrograms/kg/injection, schedule: Q04DX003 (ip), vehicle: saline + alcohol, higher = longer survival",106 % of control
same,T/C,"endpoint: median survival time, dose: 200.0 micrograms/kg/injection, schedule: Q04DX003 (ip), vehicle: saline + alcohol, higher = longer survival",97 % of control
CC(/C=N/N=C(N)N)=N/N=C(N)N,T/C,[9],96 % of control
same,T/C,[10],69 % of control
same,T/C,"endpoint: mean tumor weight, dose: 50.0 mg/kg/injection, schedule: Q01DX011 (ip), vehicle: saline, higher = larger tumour",94 % of control
O=C(O)C(O)C(O)C1[O][Sb][O]C1CO (stereo not drawn),T/C,[7],104 % of control
same,T/C,[8],102 % of control
CCCCCCCCCCCCSC(=N)N,T/C,"endpoint: median survival time, dose: 6.25 mg/kg/injection, schedule: Q01DX009 (ip), vehicle: saline with Tween-80, higher = longer survival",107 % of control
same,T/C,"endpoint: median survival time, dose: 12.5 mg/kg/injection, schedule: Q01DX009 (ip), vehicle: saline with Tween-80, higher = longer survival",106 % of control
same,T/C,"endpoint: median survival time, dose: 25.0 mg/kg/injection, schedule: Q01DX009 (ip), vehicle: saline with Tween-80, higher = longer survival",104 % of control
COc1ccc2c(Cc3ccccc3)cncc2c1O,T/C,[4],90 % of control
same,T/C,[5],101 % of control
same,T/C,[6],91 % of control
same,T/C,"endpoint: median survival time, dose: 100.0 mg/kg/injection, schedule: Q01DX009 (ip), vehicle: Klucel (hydroxypropylcellulose) (HPC), higher = longer survival",101 % of control
NCCc1ccc(O)c(O)c1,T/C,"endpoint: median survival time, dose: 37.0 mg/kg/injection, schedule: Q01DX009 (ip), vehicle: saline, higher = longer survival",119 % of control
same,T/C,"endpoint: median survival time, dose: 75.0 mg/kg/injection, schedule: Q01DX009 (ip), vehicle: saline, higher = longer survival",109 % of control
same,T/C,"endpoint: median survival time, dose: 150.0 mg/kg/injection, schedule: Q01DX009 (ip), vehicle: saline, higher = longer survival",88 % of control
same,T/C,"endpoint: median survival time, dose: 600.0 mg/kg/injection, schedule: Q01DX009 (ip), vehicle: saline, higher = longer survival",107 % of control
NC(CSC(c1ccccc1)(c1ccccc1)c1ccccc1)C(=O)O (stereo not drawn),T/C,"endpoint: mean tumor weight, dose: 12.0 mg/kg/injection, schedule: Q01DX011 (ip), vehicle: methylcellulose (MC), higher = larger tumour",115 % of control
same,T/C,"endpoint: median survival time, dose: 8.0 mg/kg/injection, schedule: Q01DX009 (ip), vehicle: Klucel (hydroxypropylcellulose) (HPC), higher = longer survival",120 % of control
same,T/C,"endpoint: median survival time, dose: 32.0 mg/kg/injection, schedule: Q01DX009 (ip), vehicle: Klucel (hydroxypropylcellulose) (HPC), higher = longer survival",112 % of control
ClCC[N-]CC[N-]CCCl.ClCC[N-]CC[N-]CCCl.[O-][Cl+3]([O-])([O-])O.[Zn+2],T/C,[11],101 % of control
same,T/C,[12],101 % of control
same,T/C,[13],105 % of control
same,T/C,[14],99 % of control
COc1c(OC)c(OC)c2c(=O)cc(-c3ccc(OC(C)=O)cc3)oc2c1OC,T/C,"endpoint: mean tumor weight, dose: 50.0 mg/kg/injection, schedule: Q01DX010 (sc), vehicle: steriod suspending solution, higher = larger tumour",97 % of control
same,T/C,"endpoint: mean tumor weight, dose: 100.0 mg/kg/injection, schedule: Q01DX010 (sc), vehicle: steriod suspending solution, higher = larger tumour",74 % of control
same,T/C,"endpoint: mean tumor weight, dose: 200.0 mg/kg/injection, schedule: Q01DX010 (sc), vehicle: steriod suspending solution, higher = larger tumour",76 % of control
same,T/C,"endpoint: mean tumor weight, dose: 400.0 mg/kg/injection, schedule: Q01DX010 (sc), vehicle: steriod suspending solution, higher = larger tumour",77 % of control
O=C(CCBr)N1CCN(C(=O)CCBr)CC1,T/C,"endpoint: median survival time, dose: 2.5 mg/kg/injection, schedule: Q01DX009 (ip), vehicle: saline with Tween-80, higher = longer survival",105 % of control
same,T/C,[11],105 % of control
same,T/C,[12],109 % of control
same,T/C,[13],109 % of control
same,T/C,[14],106 % of control
same,T/C,"endpoint: median survival time, dose: 80.0 mg/kg/injection, schedule: Q01DX009 (ip), vehicle: saline with Tween-80, higher = longer survival",102 % of control
COc1ccc(-c2cc(=O)c3c(O)c(OC)c(OC)c(OC)c3o2)cc1,T/C,[9],95 % of control
same,T/C,[10],100 % of control
same,T/C,"endpoint: mean tumor weight, dose: 50.0 mg/kg/injection, schedule: Q01DX011 (sc), vehicle: steriod suspending solution, higher = larger tumour",63 % of control
same,T/C,"endpoint: mean tumor weight, dose: 100.0 mg/kg/injection, schedule: Q01DX011 (sc), vehicle: steriod suspending solution, higher = larger tumour",90 % of control
Cc1ccccn1,T/C,"endpoint: mean tumor weight, dose: 62.5 mg/kg/injection, schedule: Q01DX011 (ip), vehicle: carboxymethylcellulose (CMC), higher = larger tumour",93 % of control
same,T/C,"endpoint: mean tumor weight, dose: 125.0 mg/kg/injection, schedule: Q01DX011 (ip), vehicle: carboxymethylcellulose (CMC), higher = larger tumour",112 % of control
same,T/C,"endpoint: mean tumor weight, dose: 250.0 mg/kg/injection, schedule: Q01DX011 (ip), vehicle: carboxymethylcellulose (CMC), higher = larger tumour",94 % of control
